Where a name gives a salt, the structure may show the parent alone. ± gives the standard error.
Key:
621-102 (TSC2-deficient) = assay: relative viability vs DMSO; higher = less cytotoxic; details: serum: 10% FBS, 72 h
621-103 (TSC2-rescued) = assay: as above; details: serum: 10% FBS, 72 h
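Note: immortalized renal angiomyolipoma cells stably carrying empty vector or TSC2, dosed in 384-well plates in DMEM, viability normalized to vehicle-treated wells within each plate.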

## NC12CC3CC(CC(C3)C1)C2 [Amantadine HCl (Symmetrel)]
621-102 (TSC2-deficient); 0.0001 µM
  relative viability: 97.2 ± 2.8%
621-102 (TSC2-deficient); 0.001 µM
  relative viability: 96.9 ± 4.5%
621-102 (TSC2-deficient); 0.01 µM
  relative viability: 94.9 ± 3.8%
621-102 (TSC2-deficient); 0.1 µM
  relative viability: 98.5 ± 3.3%
621-102 (TSC2-deficient); 1 µM
  relative viability: 100.9 ± 0.5%
621-102 (TSC2-deficient); 10 µM
  relative viability: 98.09 ± 0.17%
621-103 (TSC2-rescued); 0.0001 µM
  relative viability: 92.2 ± 5.4%
621-103 (TSC2-rescued); 0.001 µM
  relative viability: 98.7 ± 2.9%
621-103 (TSC2-rescued); 0.01 µM
  relative viability: 106 ± 2.3%
621-103 (TSC2-rescued); 0.1 µM
  relative viability: 111 ± 3.6%
621-103 (TSC2-rescued); 1 µM
  relative viability: 108 ± 1.8%
621-103 (TSC2-rescued); 10 µM
  relative viability: 96.89 ± 0.4%

## O=C(O)[C@H]1O[C@@H](Oc2cc3oc(-c4ccccc4)cc(=O)c3c(O)c2O)[C@H](O)[C@@H](O)[C@@H]1O [Baicalin]
621-102 (TSC2-deficient); 0.0001 µM
  relative viability: 97.45 ± 0.88%
621-102 (TSC2-deficient); 0.001 µM
  relative viability: 108 ± 3.8%
621-102 (TSC2-deficient); 0.01 µM
  relative viability: 106 ± 2.6%
621-102 (TSC2-deficient); 0.1 µM
  relative viability: 106 ± 1.6%
621-102 (TSC2-deficient); 1 µM
  relative viability: 110 ± 1.3%
621-102 (TSC2-deficient); 10 µM
  relative viability: 98.5 ± 1.3%
621-103 (TSC2-rescued); 0.0001 µM
  relative viability: 113.5 ± 0.92%
621-103 (TSC2-rescued); 0.001 µM
  relative viability: 106 ± 1.2%
621-103 (TSC2-rescued); 0.01 µM
  relative viability: 118.8 ± 1.1%
621-103 (TSC2-rescued); 0.1 µM
  relative viability: 106 ± 4.6%
621-103 (TSC2-rescued); 1 µM
  relative viability: 105 ± 1.2%
621-103 (TSC2-rescued); 10 µM
  relative viability: 107.9 ± 0.63%

## CS(=O)(=O)N1CCN(Cc2cc3nc(-c4cccc5[nH]ncc45)nc(N4CCOCC4)c3s2)CC1 [GDC-0941]
621-102 (TSC2-deficient); 0.0001 µM
  relative viability: 106 ± 1.4%
621-102 (TSC2-deficient); 0.001 µM
  relative viability: 114 ± 2.3%
621-102 (TSC2-deficient); 0.01 µM
  relative viability: 114.7 ± 0.27%
621-102 (TSC2-deficient); 0.1 µM
  relative viability: 111 ± 2.6%
621-102 (TSC2-deficient); 1 µM
  relative viability: 97 ± 1.1%
621-102 (TSC2-deficient); 10 µM
  relative viability: 53.69 ± 0.36%
621-103 (TSC2-rescued); 0.0001 µM
  relative viability: 98.45 ± 0.81%
621-103 (TSC2-rescued); 0.001 µM
  relative viability: 100 ± 2.2%
621-103 (TSC2-rescued); 0.01 µM
  relative viability: 98.08 ± 0.38%
621-103 (TSC2-rescued); 0.1 µM
  relative viability: 97.2 ± 2.3%
621-103 (TSC2-rescued); 1 µM
  relative viability: 83.3 ± 0.97%
621-103 (TSC2-rescued); 10 µM
  relative viability: 37.9 ± 0.47%

## CC(=O)Nc1nc(C)c(-c2ccc(Cl)c(S(=O)(=O)NCCO)c2)s1 [PIK-93]
621-102 (TSC2-deficient); 0.0001 µM
  relative viability: 94.69 ± 0.6%
621-102 (TSC2-deficient); 0.001 µM
  relative viability: 106 ± 2.8%
621-102 (TSC2-deficient); 0.01 µM
  relative viability: 115 ± 0.89%
621-102 (TSC2-deficient); 0.1 µM
  relative viability: 112 ± 3.2%
621-102 (TSC2-deficient); 1 µM
  relative viability: 113.97 ± 0.11%
621-102 (TSC2-deficient); 10 µM
  relative viability: 82.8 ± 0.53%
621-103 (TSC2-rescued); 0.0001 µM
  relative viability: 102.7 ± 0.19%
621-103 (TSC2-rescued); 0.001 µM
  relative viability: 102 ± 1.3%
621-103 (TSC2-rescued); 0.01 µM
  relative viability: 98.7 ± 1.2%
621-103 (TSC2-rescued); 0.1 µM
  relative viability: 100.8 ± 1%
621-103 (TSC2-rescued); 1 µM
  relative viability: 102 ± 1.7%
621-103 (TSC2-rescued); 10 µM
  relative viability: 74.3 ± 1.8%

## COC(=O)N1CCN(Cc2cccc(NC(=O)Nc3ccc(C)nc3)c2F)CC1
621-102 (TSC2-deficient); 0.0001 µM
  relative viability: 93.8 ± 5.1%
621-102 (TSC2-deficient); 0.001 µM
  relative viability: 94.7 ± 5.8%
621-102 (TSC2-deficient); 0.01 µM
  relative viability: 97.5 ± 0.16%
621-102 (TSC2-deficient); 0.1 µM
  relative viability: 96.33 ± 0.19%
621-102 (TSC2-deficient); 1 µM
  relative viability: 85.15 ± 0.1%
621-102 (TSC2-deficient); 10 µM
  relative viability: 95.3 ± 1.4%
621-103 (TSC2-rescued); 0.0001 µM
  relative viability: 103 ± 5.3%
621-103 (TSC2-rescued); 0.001 µM
  relative viability: 111 ± 1.7%
621-103 (TSC2-rescued); 0.01 µM
  relative viability: 110 ± 1.2%
621-103 (TSC2-rescued); 0.1 µM
  relative viability: 101 ± 2.6%
621-103 (TSC2-rescued); 1 µM
  relative viability: 108 ± 2.7%
621-103 (TSC2-rescued); 10 µM
  relative viability: 104 ± 2.6%

## C#Cc1cccc(Nc2ncnc3cc(OCCOC)c(OCCO)cc23)c1 [OSI-420]
621-102 (TSC2-deficient); 0.0001 µM
  relative viability: 118 ± 6.5%
621-102 (TSC2-deficient); 0.001 µM
  relative viability: 106.9 ± 0.52%
621-102 (TSC2-deficient); 0.01 µM
  relative viability: 103 ± 0.19%
621-102 (TSC2-deficient); 0.1 µM
  relative viability: 95.9 ± 4%
621-102 (TSC2-deficient); 1 µM
  relative viability: 115 ± 2.9%
621-102 (TSC2-deficient); 10 µM
  relative viability: 95.8 ± 1.9%
621-103 (TSC2-rescued); 0.0001 µM
  relative viability: 102.2 ± 0.8%
621-103 (TSC2-rescued); 0.001 µM
  relative viability: 101.12 ± 0.0035%
621-103 (TSC2-rescued); 0.01 µM
  relative viability: 106.2 ± 0.97%
621-103 (TSC2-rescued); 0.1 µM
  relative viability: 100 ± 1.9%
621-103 (TSC2-rescued); 1 µM
  relative viability: 101.78 ± 0.034%
621-103 (TSC2-rescued); 10 µM
  relative viability: 74.8 ± 1.7%

## N#Cc1ccc(C(c2ccc(C#N)cc2)n2cncn2)cc1 [Letrozole]
621-102 (TSC2-deficient); 0.0001 µM
  relative viability: 130 ± 1.9%
621-102 (TSC2-deficient); 0.001 µM
  relative viability: 114 ± 5.8%
621-102 (TSC2-deficient); 0.01 µM
  relative viability: 114 ± 0.22%
621-102 (TSC2-deficient); 0.1 µM
  relative viability: 104 ± 5%
621-102 (TSC2-deficient); 1 µM
  relative viability: 113.3 ± 0.22%
621-102 (TSC2-deficient); 10 µM
  relative viability: 111 ± 1.2%
621-103 (TSC2-rescued); 0.0001 µM
  relative viability: 103 ± 1.7%
621-103 (TSC2-rescued); 0.001 µM
  relative viability: 105 ± 2%
621-103 (TSC2-rescued); 0.01 µM
  relative viability: 103.5 ± 0.86%
621-103 (TSC2-rescued); 0.1 µM
  relative viability: 99.5 ± 1%
621-103 (TSC2-rescued); 1 µM
  relative viability: 102.6 ± 0.18%
621-103 (TSC2-rescued); 10 µM
  relative viability: 101 ± 1.1%

## Cc1[nH]c(=O)c(C#N)cc1-c1ccncc1 [Milrinone (Primacor)]
621-102 (TSC2-deficient); 0.0001 µM
  relative viability: 109 ± 3.1%
621-102 (TSC2-deficient); 0.001 µM
  relative viability: 114 ± 2.9%
621-102 (TSC2-deficient); 0.01 µM
  relative viability: 110 ± 2%
621-102 (TSC2-deficient); 0.1 µM
  relative viability: 103.33 ± 0.049%
621-102 (TSC2-deficient); 1 µM
  relative viability: 107 ± 3.9%
621-102 (TSC2-deficient); 10 µM
  relative viability: 107 ± 1.4%
621-103 (TSC2-rescued); 0.0001 µM
  relative viability: 95.74 ± 0.27%
621-103 (TSC2-rescued); 0.001 µM
  relative viability: 91.11 ± 0.53%
621-103 (TSC2-rescued); 0.01 µM
  relative viability: 95.5 ± 9.2%
621-103 (TSC2-rescued); 0.1 µM
  relative viability: 91.8 ± 3.8%
621-103 (TSC2-rescued); 1 µM
  relative viability: 91.27 ± 0.77%
621-103 (TSC2-rescued); 10 µM
  relative viability: 89.3 ± 2.9%

## Cc1nc(-c2ccc(OCC(C)C)c(C#N)c2)sc1C(=O)O [Febuxostat]
621-102 (TSC2-deficient); 0.0001 µM
  relative viability: 104 ± 2.3%
621-102 (TSC2-deficient); 0.001 µM
  relative viability: 104 ± 2.4%
621-102 (TSC2-deficient); 0.01 µM
  relative viability: 102.5 ± 0.48%
621-102 (TSC2-deficient); 0.1 µM
  relative viability: 105 ± 5.9%
621-102 (TSC2-deficient); 1 µM
  relative viability: 100.8 ± 0.75%
621-102 (TSC2-deficient); 10 µM
  relative viability: 99.9 ± 2.2%
621-103 (TSC2-rescued); 0.0001 µM
  relative viability: 104 ± 2.5%
621-103 (TSC2-rescued); 0.001 µM
  relative viability: 100.5 ± 0.98%
621-103 (TSC2-rescued); 0.01 µM
  relative viability: 101 ± 2.4%
621-103 (TSC2-rescued); 0.1 µM
  relative viability: 102 ± 4%
621-103 (TSC2-rescued); 1 µM
  relative viability: 98.3 ± 0.27%
621-103 (TSC2-rescued); 10 µM
  relative viability: 101.3 ± 0.28%

## COc1cccc2cc(-c3nc([C@H]4CC[C@H](C(=O)O)CC4)n4ncnc(N)c34)[nH]c12 [OSI-027]
621-102 (TSC2-deficient); 0.0001 µM
  relative viability: 79.6 ± 8.2%
621-102 (TSC2-deficient); 0.001 µM
  relative viability: 88.5 ± 5.6%
621-102 (TSC2-deficient); 0.01 µM
  relative viability: 91.5 ± 7%
621-102 (TSC2-deficient); 0.1 µM
  relative viability: 90 ± 1.8%
621-102 (TSC2-deficient); 1 µM
  relative viability: 77.9 ± 2.4%
621-102 (TSC2-deficient); 10 µM
  relative viability: 25.2 ± 0.58%
621-103 (TSC2-rescued); 0.0001 µM
  relative viability: 105 ± 2.6%
621-103 (TSC2-rescued); 0.001 µM
  relative viability: 101.3 ± 0.67%
621-103 (TSC2-rescued); 0.01 µM
  relative viability: 100.8 ± 0.85%
621-103 (TSC2-rescued); 0.1 µM
  relative viability: 94.6 ± 4.2%
621-103 (TSC2-rescued); 1 µM
  relative viability: 81.7 ± 4.1%
621-103 (TSC2-rescued); 10 µM
  relative viability: 32.3 ± 0.85%
